Measurements as given in PMC6002460, “Pharmacological evaluation of new constituents of “Spice”: synthetic cannabinoids based on indole, indazole, benzimidazole and carbazole scaffolds” (Forensic Toxicology, 2018).
Read-outs that look alike come from different tables or passages of the source.

What was measured:
human CB1 receptor = biological target: T1, human CB1 receptor (Homo sapiens, UniProt P21554); assay: biochemical; type: binding; conditions: [3H]CP55,940 0.1 nM, CHO cell membranes; read-out: Ki ± SEM Human CB1
T1 construct: expressed in transfected cells; host or cells: CHO cells (membrane preparations)
T1 sequence (P21554 whole entry): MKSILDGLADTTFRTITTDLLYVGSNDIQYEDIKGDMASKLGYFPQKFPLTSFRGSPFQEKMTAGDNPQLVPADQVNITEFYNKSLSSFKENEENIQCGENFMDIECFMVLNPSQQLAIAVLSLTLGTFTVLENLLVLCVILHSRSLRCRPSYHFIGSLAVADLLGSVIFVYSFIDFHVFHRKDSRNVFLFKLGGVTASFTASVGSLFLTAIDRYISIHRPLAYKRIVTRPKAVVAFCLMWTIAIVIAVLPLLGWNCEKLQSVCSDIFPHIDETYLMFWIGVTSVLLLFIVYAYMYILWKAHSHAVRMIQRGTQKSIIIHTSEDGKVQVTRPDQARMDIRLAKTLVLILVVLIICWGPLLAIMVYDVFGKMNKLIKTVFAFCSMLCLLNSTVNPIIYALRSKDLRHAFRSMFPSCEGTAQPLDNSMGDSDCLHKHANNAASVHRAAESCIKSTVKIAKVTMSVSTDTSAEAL

human CB2 receptor = biological target: T2, human CB2 receptor (Homo sapiens, UniProt P34972); assay: biochemical; type: binding; conditions: [3H]CP55,940 0.1 nM, CHO cell membranes; read-out: Ki ± SEM Human CB2
T2 construct: expressed in transfected cells; host or cells: CHO cells (membrane preparations)
T2 sequence (P34972 whole entry): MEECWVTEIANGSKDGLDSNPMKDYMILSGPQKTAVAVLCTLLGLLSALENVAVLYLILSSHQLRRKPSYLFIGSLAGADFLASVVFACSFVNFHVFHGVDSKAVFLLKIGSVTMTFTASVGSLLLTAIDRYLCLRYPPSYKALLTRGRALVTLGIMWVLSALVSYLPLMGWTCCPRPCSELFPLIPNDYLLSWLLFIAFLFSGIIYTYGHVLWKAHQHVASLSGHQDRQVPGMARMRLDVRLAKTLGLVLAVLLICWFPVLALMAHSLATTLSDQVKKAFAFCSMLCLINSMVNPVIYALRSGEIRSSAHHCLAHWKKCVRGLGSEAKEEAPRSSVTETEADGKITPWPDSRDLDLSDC

human GPR55 = biological target: T3, human GPR55 (Homo sapiens, UniProt Q9Y2T6); assay: β-Arrestin PathHunter assay, recombinant CHO cells expressing GPR55; type: cell-based; conditions: for Human GPR55 % activation / Human GPR55 % inhibition: value in parentheses; for Human GPR55 % inhibition: antagonist mode versus LPI 1 µM
T3 construct: host or cells: CHO cells
T3 sequence (Q9Y2T6 whole entry): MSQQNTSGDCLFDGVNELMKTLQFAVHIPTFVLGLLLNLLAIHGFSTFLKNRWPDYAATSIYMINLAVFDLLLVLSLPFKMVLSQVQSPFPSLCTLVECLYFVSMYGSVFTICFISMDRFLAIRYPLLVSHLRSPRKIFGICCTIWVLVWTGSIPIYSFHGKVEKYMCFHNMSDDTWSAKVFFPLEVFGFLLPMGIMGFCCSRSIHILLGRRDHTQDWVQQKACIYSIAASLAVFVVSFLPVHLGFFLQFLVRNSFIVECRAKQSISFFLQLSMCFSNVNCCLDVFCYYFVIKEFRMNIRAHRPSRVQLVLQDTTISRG
Method: (§1) β-Arrestin assays were performed in recombinant CHO cells expressing either the human GPR18 or the human GPR55 as described before using the β-galactosidase enzyme fragment complementation technology (β-arrestin PathHunter™ assay; DiscoverX, Fremont, CA, USA).
(§2) The orphan receptors GPR18 and GPR55 can interact with certain natural and synthetic cannabinoids. […] Therefore, we investigated the new series of indole, indazole, benzimidazole and carbazole-derived structures in β-arrestin assays at GPR18 and GPR55 (Table 2). […] For the lipophilic substitutions, the following rank order of potency was observed: ethyl > methyl > chloro > fluoro. Therefore, it can be concluded that a lipophilic substitution in position 4 of the naphthyl residue was a requirement for GPR55 inhibition.

human GPR18 = biological target: T4, human GPR18 (Homo sapiens, UniProt Q14330); assay: β-Arrestin PathHunter assay, recombinant CHO cells expressing GPR18; type: cell-based; conditions: for Human GPR18 % activation / Human GPR18 % inhibition: value in parentheses
T4 construct: host or cells: CHO cells
T4 sequence (Q14330 1-331): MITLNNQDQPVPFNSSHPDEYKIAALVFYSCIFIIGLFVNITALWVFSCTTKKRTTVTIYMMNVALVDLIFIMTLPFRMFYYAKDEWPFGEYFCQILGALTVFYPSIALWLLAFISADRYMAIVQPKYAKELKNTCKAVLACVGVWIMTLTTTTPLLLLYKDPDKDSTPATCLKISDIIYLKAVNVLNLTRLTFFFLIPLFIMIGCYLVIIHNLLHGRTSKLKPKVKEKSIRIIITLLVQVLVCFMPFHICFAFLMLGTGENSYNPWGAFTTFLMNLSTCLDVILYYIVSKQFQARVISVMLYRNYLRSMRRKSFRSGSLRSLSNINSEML
Method: as §1, §2

CB1 receptor = conditions: membrane potential assay, cited from earlier work
CB2 receptor = conditions: membrane potential assay, cited from earlier work

SMILES	Ki (human CB1 receptor) [µM]	Ki (human CB2 receptor) [µM]	EC50 (human GPR55) [µM]	IC50 (human GPR55) [µM]	Human GPR55 % activation (human GPR55; agonist mode) [%]	EC50 (human GPR18) [µM]	IC50 (human GPR18) [µM]	Human GPR18 % activation (human GPR18; agonist mode) [%]	Human GPR55 % inhibition (human GPR55) [%]	Human GPR18 % inhibition (human GPR18; antagonist mode)	EC50 (CB1 receptor; ref Banister et al. [38]) [µM]	EC50 (CB2 receptor; ref Banister et al. [38]) [µM]	EC50 (CB1 receptor; ref Banister et al. [42]) [µM]	EC50 (CB2 receptor; ref Banister et al. [42]) [µM]	EC50 (human GPR55; agonist mode, read-out: Human GPR55 EC50) [µM]	IC50 (human GPR55; antagonist mode versus lysophosphatidylinositol (LPI, 1 µM), read-out: Human GPR55 IC50) [µM]	EC50 (human GPR18; agonist mode, read-out: Human GPR18 EC50) [µM]	IC50 (human GPR18; antagonist mode, read-out: Human GPR18 IC50) [µM]
CC[C@H](C)[C@H](NC(=O)c1nn(CCCCCF)c2ccccc12)C(N)=O (single isomer, unassigned; isomer 2) [compound 26, 5F-ADB-PINACA-isomer 2]	0.0031 ± 0.00153	0.00428 ± 0.00286	> 10	> 10	2	> 10	> 10	8										
O=C(Nc1cccc2ccccc12)c1cn(Cc2ccc(F)cc2)c2ccccc12 [compound 4, FDU-NNEI]	0.00742 ± 0.00251	0.064 ± 0.015	> 10	> 10	13	> 10	> 10	20	2									
CCCCCn1cc(C(=O)N[C@H](C(=O)OC)C(C)C)c2ccccc21 [compound 5, MMB-018]	0.0151 ± 0.0059	0.014 ± 0.0008	> 10	> 10	5	> 10	> 10	13	5									
CCCCCn1nc(C(=O)N[C@H](C(=O)OC)C(C)C)c2ccccc21 [compound 6, AMB]	0.000866 ± 5.7e-05	0.000973 ± 0.000104	> 10	> 10	15	> 10	> 10	42	28	15%								
COC(=O)[C@@H](NC(=O)c1cn(CCCCCF)c2ccccc12)C(C)C [compound 7, MMB-2201]	0.0152 ± 0.005	0.0198 ± 0.0042	> 10	> 10	5	> 10	> 10	2										
COC(=O)[C@@H](NC(=O)c1nn(CCCCCF)c2ccccc12)C(C)C [compound 8, 5F-AMB]	0.00113 ± 0.00048	0.00138 ± 0.00022	> 10	> 10	14	> 10	> 10	1			0.0019	0.01						
CC(C)[C@H](NC(=O)c1nn(CCCCCCl)c2ccccc12)C(N)=O [compound 17, 5Cl-AB-PINACA]	0.00406 ± 0.00195	0.012 ± 0.0017	> 10	> 10	17	> 10	> 10	4		0%								
CC(C)(C)[C@H](NC(=O)c1cn(CC2CCCCC2)c2ccccc12)C(N)=O [compound 22, ADB-CHMICA]	0.00124 ± 0.00036	0.000628 ± 0.000231	> 10	> 10	17	> 10	> 10	8	8	14%								
CC(C)(C)[C@H](NC(=O)c1nn(Cc2ccc(F)cc2)c2ccccc12)C(N)=O [compound 24, ADB-FUBINACA]		0.000339 ± 5.9e-05	> 10	> 10	7	> 10	> 10	7		16%			0.0012	0.0035				
CC(C)(C)[C@H](NC(=O)c1nn(CC2CCCCC2)c2ccccc12)C(N)=O [compound 25]	0.000333 ± 5.9e-05	0.000331 ± 4.8e-05	> 10	> 10	16	> 10	> 10	6		> 10 (10%)								
NC(=O)[C@H](Cc1ccccc1)NC(=O)c1cn(CCCCCF)c2ccccc12 [compound 27, PX-1]	0.485 ± 0.117	0.164 ± 0.017	> 10	> 10	6	> 10	> 10	15	1									
NC(=O)[C@H](Cc1ccccc1)NC(=O)c1nn(CCCCCF)c2ccccc12 [compound 28, PX-2]	0.127 ± 0.043	0.0174 ± 0.0014	> 10	> 10	16	> 10	> 10			15%								
COC(=O)[C@@H](OC(=O)c1nn(CC2CCCCC2)c2ccccc12)C(C)(C)C [compound 34]	0.0104 ± 0.0074	0.00111 ± 0.00014	> 10	9.29 ± 1.7	1	> 10	12.6 ± 3.5	0										
O=C(c1cccc2ccccc12)c1cn(Cc2ccc(F)cc2)c2ccccc12 [compound 35, FUB-JWH-018]	0.00327 ± 0.00176	0.00134 ± 0.00048	> 10	> 10	7	> 10	> 10	20	30	30%								
O=C(c1ccc(F)c2ccccc12)c1cn(CCCCCF)c2ccccc12 [compound 36, F-2201]	0.000852 ± 0.000192	0.00189 ± 0.00057	> 10	22.1 ± 12.2		> 10	> 10	18		14%								
O=C(c1ccc(Cl)c2ccccc12)c1cn(CCCCCF)c2ccccc12 [compound 37, Cl-2201]	0.000772 ± 0.000101	0.00118 ± 0.00019	> 10	7.12 ± 1.26		> 10	> 10	16		4%								
CCCCCn1c2ccccc2c2cc(C(=O)c3cccc4ccccc34)ccc21 [compound 39, EG-018]		0.00227 ± 0.00038			0			2	1						> 10	> 10	> 10	> 10
